As usually defined, the ED50 is the dose that gives a 50% effect, or the effect in half of the subjects. The LD50 is the dose at which mortality reaches 50%.

The test system of one series is Holzman male white rats. Put plainly: Rat approach-avoidance test (anti-anxiety). In kind it is in vivo, rat (Holzman male white). The following applies: for ED50: Rattus norvegicus; for anti-anxiety activity: in words. The protocol: Potential as anti-anxiety agents was assessed by means of the potency of these compounds in the rat approach-avoidance test.
Approach-Avoidance Test Method
18 hr. waterdeprived Holzman male white rats, 150-175 g each, were used. The apparatus consists of two interconnected chambers, the first in which the animal is placed, and a second which contains the stimulus and a water bottle. The second is fitted with an electrifiable floor. On the first day, the rats are placed in the first chamber. They are allowed three minutes to find the water bottle in the second chamber and to drink water for at least two seconds. After three successful trials on the first day the animals are given one predrug trial on the second day. Then follows a second predrug trial during which the floor of the second chamber is electrified 1.5 seconds after the rat has commenced drinking water. The animals are randomized, dosed orally, and reexposed to the test situation at 1, 2, or 4 hours after the shock trial.

A further series is described as follows: in vivo. The following applies: mouse, in vivo, po.
In a further series the test system is female CF1 S mice. Put plainly: Mouse spontaneous motor activity (activity cage). In kind it is in vivo, mouse (CF1 S female). The conditions noted are these: 0.5 h, read-out: Exploratory Loss Activity Cage ED50. The procedure:
Mouse Spontaneous Motor Activity (Activity Cage)
Twenty-four per dose, 16- 20 g or 18-22 g, female CF1 S mice, fasted 16- 22 hours, are intubated (in pairs) with drug at t doses such as 0, 1, 3, 9, 27 and 81 mg/kg in 10 ml/kg of aqueous 1% methylcellulose. The mice are then put in separate "shoe-box" cages (12 × 7.5 × 5.3 inches plastic with a 0.33 inch mesh stainless steel lid), and 20 minutes after intubation the animals in pairs are moved to covered Woodard Photoelectric Activity Chambers (central light source type measurement floor area = 96 in^2). Ten minutes later (30 minutes after dosing) a 5-minute count is taken. Counting chamber characteristics are balanced out by counting 2 pairs of mice from each dose level in each of 6 different counting chambers. Half of each test is run in the a.m. and the other half is run in the p.m. to minimize "biological clock" variations.
Canad. Biol. 20, 239-50 (1961), raw counts are thus transformed for statistical treatment (Student's t test). The means of the square roots then are squared and an ED50 for stimulation or depression (or both) is determined graphically.

For the next series, the system named is female white mice. Put plainly: animal or person. The conditions noted are these: Mus musculus, po.
Series [1] has as its system phenylquinone-induced writhing. Put plainly: Phenylquinone writhing test (analgesia). In kind it is in vivo, mouse (Carworth CF1 S female). The following applies: Mus musculus, po, Table 1, mice. The text has this: This mouse test is predictive of analgesic response in humans. [E. Siegmund, R. Cadmus and G. Lee, Proc. Soc.
ED50 values were obtained graphically from the data.

The mark [2] stands for this setting: 0.3 mg/kg oral, 4 hrs, N=10 rats.
[3] abbreviates: Table II, oral, rats, 4 hrs, read-out: ED50.
The mark [4] stands for this setting: read-out: Catatonia ED50, Table 1, oral, mice.
[5] abbreviates: read-out: Exploratory Loss Visual ED50, Table 1, oral, mice.
Setting [6] is: read-out: Muscle Tone ED50, Table 1, oral, mice.
Where [7] appears, read: read-out: Ptosis ED50, Table 1, Extrapolated value.
Where [8] appears, read: read-out: Reflexes Lift ED50, Table 1, oral, mice.
Where [9] appears, read: read-out: Reflexes Pinna ED50, Table 1, oral, mice.
Where [10] appears, read: Table 1, oral, mice, 30 minutes after dosing.

Read-outs that look alike come from different tables or passages of the source.

On to `CN1C(=O)CN=C(c2ccccc2)c2cc(Cl)ccc21` [Diazepam, reference compound], for which the “No. of Responders” value with Holzman male white rats (1 mg/kg oral, 1 hr, N=6 rats) worked out at 0; in the series with Holzman male white rats (3 mg/kg oral, 1 hr, N=6 rats), 2; with Holzman male white rats (10 mg/kg oral, 1 hr, N=6 rats), 5. Besides, the ED50 was 6 mg/kg in the series with Holzman male white rats (po, 1 h); greater than 324 mg/kg in “in vivo” (Tremors ED50, Table 1, mice); 2 mg/kg with female CF1 S mice (po). Besides, the anti-anxiety activity entry in the series on Holzman male white rats was “active in this test”.

`c1ccc2c(c1)C1CC3(CN(CC4CCCC4)CC23)c2ccccc21` (stereo not drawn) [Example 7, 2-Cyclopentylmethyl-2,3,8,12b-tetrahydro-1H-3a,8-methanodibenzo[3,4:6,7]cyclohepta[1,2-c]pyrrole]: the “No. of Responders” value with Holzman male white rats (0.03 mg/kg oral, 4 hrs, N=10 rats) is listed as 1; in the series on Holzman male white rats (0.1 mg/kg oral, 4 hrs, N=20 rats) it was 7; with Holzman male white rats (setting [2]), 6. Further, the ED50 with Holzman male white rats (setting [3]) is 0.2 mg/kg; in the series “in vivo” it was greater than 324 mg/kg; in the series with female white mice (setting [4]), 8 mg/kg; in the series with female white mice (setting [5]), 7 mg/kg; in the series on female white mice (setting [6]), 7 mg/kg; in the series on female white mice (setting [7]), 3 mg/kg. Further, the ED50 in the series on female white mice (read-out: Reflexes Grip ED50, Table 1, oral, mice) worked out at 210 mg/kg; in the series on female white mice (setting [8]), 11 mg/kg; in the series on female white mice (setting [9]), 9 mg/kg; in series [1], 2 mg/kg; with female CF1 S mice (setting [10]), 0.66 mg/kg. In the series with Holzman male white rats, the anti-anxiety activity result was “potent anti-anxiety or minor tranquilizer activity”. The LD50 at 24 h in “in vivo” is greater than 324 mg/kg.

On to `c1ccc2c(c1)C1CC3(CN(CC4CCCCC4)CC23)c2ccccc21` (stereo not drawn) [Example 25, 2-Cyclohexylmethyl-2,3,8,12b-tetrahydro-1H-3a,8-methanodibenzo[3,4:6,7]cyclohepta[1,2-c]pyrrole], for which the “No. of Responders” value with Holzman male white rats (0.1 mg/kg oral, 4 hrs, N=10 rats) is recorded as 1; in the series with Holzman male white rats (setting [2]), 2; with Holzman male white rats (1.0 mg/kg oral, 4 hrs, N=8 rats) it was 5. Further, the ED50 in the series on Holzman male white rats (setting [3]) is 0.5 mg/kg; in “in vivo”, 450 mg/kg; with female white mice (setting [4]), 9 mg/kg; in the series on female white mice (setting [5]), 9 mg/kg; with female white mice (setting [6]), 8 mg/kg; with female white mice (setting [7]), 3 mg/kg. In addition, the ED50 in the series on female white mice (read-out: Reflexes Grip ED50, Table 1, Extrapolated value) was 450 mg/kg; in the series on female white mice (setting [8]), 8 mg/kg; in the series with female white mice (setting [9]), 7 mg/kg; in series [1], 6.4 mg/kg; in the series with female CF1 S mice (setting [10]), 4.7 mg/kg. For the same molecule, in the series on Holzman male white rats, the anti-anxiety activity result is listed as “potent anti-anxiety or minor tranquilizer activity”. Further, the LD50 at 24 h in the series “in vivo” was found to be 320 mg/kg.
